In ChEMBL document CHEMBL1201862, “PubChem BioAssay data set” (2004):
Activity calls are given as the source filed them.

Assays:
Cytochrome P450 2D6 = Cytochrome P450 2D6 (Homo sapiens, UniProt P10635);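 further: CYP2D6 member of a cytochrome P450 panel assay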
[1] = Trypanosoma cruzi growth suppression in host cells – NIH3T3 host cells, beta-gal luminescence, confirmation (AID 2044); assay type: functional, cell-based;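 further: intracellular parasites grown in NIH/3T3 mouse fibroblasts as host cells; luminescent beta-galactosidase reporter signal from transgenic T. cruzi replicating inside host cells; inhibitors lower the luminescence signal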
[2] = NIH3T3 cell viability loss – ATP luminescence, mouse fibroblasts, counter-screen, dose response (AID 2010); assay type: functional, cell-based;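 further: cells exposed to compound for about 90 hours before reading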
Cytochrome P450 2C19 = Cytochrome P450 2C19 (Homo sapiens, UniProt P33261); experiment: Cytochrome panel assay with activity outcomes. Panel member name: p450-cyp2c19 Compounds with AC50 equal or less than 10 uM are considered active; assay type: functional
Cytochrome P450 3A4 = Cytochrome P450 3A4 (Homo sapiens, UniProt P08684);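 further: CYP3A4 tested as one member of a cytochrome P450 panel screen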
H4 = experiment: Luminescence Cell-Based Dose Response HTS to Identify Activators of 5'UTR Stem-Loop Driven Prion Protein mRNA Translation in H4 Neuroglioblastoma Cells. [Related pubchem assays: 1829 (Project Summary), 1814 (Primary HTS)]; assay type: functional; conditions: Homo sapiens
[3] = test system: Streptococcus sp. 'group A'; experiment: Streptococcus pyogenes SK(-)GAS viability under kanamycin – luminescence, BacTiterGlo, confirmation, counter-screen for streptokinase expression inhibitor project, dose response (AID 1900); assay type: functional, organism-based
Streptokinase A = molecular target: T1, Streptokinase A (Streptococcus pyogenes serotype M1, UniProt P10520); experiment: viability-normalized secreted streptokinase activity reduction – plasminogen activation absorbance, OD405, dose response (AID 1914); assay type: functional, Streptococcus pyogenes M1 GAS;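 further: secreted streptokinase activity via plasminogen activation per viability signal from cell pellet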
T1 sequence (P10520 whole entry): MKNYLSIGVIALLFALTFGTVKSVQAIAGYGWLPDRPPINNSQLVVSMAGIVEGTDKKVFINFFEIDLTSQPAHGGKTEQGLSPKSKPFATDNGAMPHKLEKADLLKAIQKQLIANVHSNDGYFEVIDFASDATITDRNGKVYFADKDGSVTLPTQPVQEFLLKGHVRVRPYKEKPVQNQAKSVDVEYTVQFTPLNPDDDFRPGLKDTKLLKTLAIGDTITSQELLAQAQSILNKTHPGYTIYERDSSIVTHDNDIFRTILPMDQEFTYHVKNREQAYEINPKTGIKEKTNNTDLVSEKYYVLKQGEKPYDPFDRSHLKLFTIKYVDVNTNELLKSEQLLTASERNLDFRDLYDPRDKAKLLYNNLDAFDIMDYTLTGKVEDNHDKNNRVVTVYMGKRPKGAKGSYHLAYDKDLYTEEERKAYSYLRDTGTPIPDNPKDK

Streptococcus = experiment: GAS UMAA2166 growth inhibition – luminescence, BacTiterGlo, counter-screen for streptokinase expression inhibitor project, dose response (AID 1915); assay type: functional, organism-based;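 further: potency for reduction of bacterial viability or growth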
[4] = Luminescence Cell-Based Dose Response HTS to Identify Activators of Luciferase Translation or Activity in H4 […] Cells. [Related pubchem assays: 1829 (Project Summary), 1814 (Primary HTS)]; assay type: functional

Cytochrome P450 2C19, sequence (P33261 whole entry): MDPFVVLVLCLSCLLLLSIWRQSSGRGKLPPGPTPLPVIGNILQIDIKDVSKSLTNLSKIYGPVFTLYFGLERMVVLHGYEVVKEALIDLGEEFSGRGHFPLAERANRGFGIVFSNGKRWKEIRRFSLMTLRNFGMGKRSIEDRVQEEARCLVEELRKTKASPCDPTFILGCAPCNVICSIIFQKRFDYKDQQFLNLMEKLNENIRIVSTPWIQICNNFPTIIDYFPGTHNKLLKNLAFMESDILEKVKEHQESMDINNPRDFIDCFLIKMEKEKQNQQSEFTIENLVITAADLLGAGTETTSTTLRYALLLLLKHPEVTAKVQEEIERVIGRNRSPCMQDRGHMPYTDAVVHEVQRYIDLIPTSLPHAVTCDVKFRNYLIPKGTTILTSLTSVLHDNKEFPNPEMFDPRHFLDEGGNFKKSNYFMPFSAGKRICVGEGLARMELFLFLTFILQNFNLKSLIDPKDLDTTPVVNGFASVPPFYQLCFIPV
Cytochrome P450 2D6, sequence (P10635 whole entry): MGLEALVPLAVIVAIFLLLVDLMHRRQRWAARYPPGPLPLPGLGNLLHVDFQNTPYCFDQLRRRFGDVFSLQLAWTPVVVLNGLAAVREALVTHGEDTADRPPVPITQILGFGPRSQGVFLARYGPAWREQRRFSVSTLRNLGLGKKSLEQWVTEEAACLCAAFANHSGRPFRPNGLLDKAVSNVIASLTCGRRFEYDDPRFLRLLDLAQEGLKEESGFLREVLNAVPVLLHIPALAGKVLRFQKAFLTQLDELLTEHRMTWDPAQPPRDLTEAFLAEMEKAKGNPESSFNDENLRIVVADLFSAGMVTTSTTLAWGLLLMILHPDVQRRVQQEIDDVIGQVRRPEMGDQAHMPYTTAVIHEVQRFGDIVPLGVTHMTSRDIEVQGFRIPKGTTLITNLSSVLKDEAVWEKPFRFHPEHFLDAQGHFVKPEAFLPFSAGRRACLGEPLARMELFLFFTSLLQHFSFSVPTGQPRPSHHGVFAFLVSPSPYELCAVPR
Cytochrome P450 3A4, sequence (P08684 whole entry): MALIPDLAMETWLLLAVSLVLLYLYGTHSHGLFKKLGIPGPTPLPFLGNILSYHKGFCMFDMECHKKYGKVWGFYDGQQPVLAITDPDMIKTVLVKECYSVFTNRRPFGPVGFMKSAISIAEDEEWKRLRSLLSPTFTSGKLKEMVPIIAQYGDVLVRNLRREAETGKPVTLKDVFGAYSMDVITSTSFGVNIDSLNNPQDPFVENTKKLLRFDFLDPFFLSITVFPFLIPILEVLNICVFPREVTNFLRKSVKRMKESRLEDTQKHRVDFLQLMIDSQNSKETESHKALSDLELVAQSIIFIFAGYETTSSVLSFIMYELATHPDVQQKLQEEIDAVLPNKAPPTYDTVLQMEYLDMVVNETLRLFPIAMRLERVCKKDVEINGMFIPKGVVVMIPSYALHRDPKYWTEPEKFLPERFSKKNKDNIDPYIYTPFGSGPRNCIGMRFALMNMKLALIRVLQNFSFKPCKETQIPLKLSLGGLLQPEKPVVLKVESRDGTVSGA

COc1ccc(C(=O)NCC(c2ccc(F)cc2)N2CCOCC2)cc1S(=O)(=O)N1CCCC1 (stereo not given)
AC50 (Cytochrome P450 2D6): 15.8 µM (inconclusive)

CC(CCc1ccccc1)N1CCN(Cc2ccccc2)CC1 (stereo not given)
EC50 [1]: 0.101 µM (active)
EC50 [2]: 10.2 µM (active)

CCOC(=O)C1CCCN(c2ncnc3c2cnn3-c2cccc(C)c2)C1 (stereo not given)
AC50 (Cytochrome P450 2C19; read-out: AC50): 20 µM (inconclusive)
AC50 (Cytochrome P450 3A4): 28.2 µM (inconclusive)

COC(=O)Cc1c(OC)ccn(CCc2c[nH]c3ccccc23)c1=O
EC50 (H4): > 120 µM (not active)

COC(=O)Cc1c[nH]c2cccc(OCC(O)CN(Cc3ccc([N+](=O)[O-])cc3)C(C)(C)C)c12 (stereo not given)
EC50 [1]: 2.83 µM (active)
EC50 [2]: > 60 µM (not active)

CN(C)c1ccc(-c2cncnc2NCc2ccccc2)cc1
AC50 (Cytochrome P450 2D6): 39.8 µM (inconclusive)

Cc1cc2nc(CCN(Cc3cccnc3)C(S)=Nc3ccc(F)cc3)[nH]c2cc1C
EC50 [1]: 0.844 µM (active)
EC50 [2]: > 30 µM (not active)

CCOc1ccc(Nc2nc(N3CCCCC3)nc(N3CCCCC3)n2)cc1
EC50 [3]: 0.648 µM (active)
EC50 (Streptokinase A): > 150 µM (not active)
EC50 (Streptococcus): 54.1 µM (active)

Fc1ccc(Br)cc1C1C=C(c2ccc(Br)s2)Nc2ncnn21 (stereo not given)
EC50 [3]: 4.65 µM (active)
EC50 (Streptokinase A): > 150 µM (not active)
EC50 (Streptococcus): 24.3 µM (active)

COc1ccccc1CNc1ncncc1-c1ccc(C(=O)N(C)C)cc1
AC50 (Cytochrome P450 2D6): 39.8 µM (inconclusive)

Cc1ccc(-c2onc3ccc(C4OCCO4)cc23)cc1
EC50 [4]: 28.4 µM (active)
EC50 (H4): 25 µM (active)

Cc1ccc(C(=N)NOC(=O)CSc2ccccc2)cc1
EC50 [4]: 0.514 µM (active)

COc1cc([N+](=O)[O-])c(N2CCOCC2)c([N+](=O)[O-])c1OC
EC50 [1]: 7.53 µM (active)
EC50 [2]: > 60 µM (not active)

Cc1ccc(C(=O)N(C)c2ccc(OCC(=O)N3c4ccc(C)cc4C4CN(C)CCC43)cc2)cc1 (stereo not given)
EC50 [1]: 0.527 µM (active)
EC50 [2]: > 60 µM (not active)

O=C(CSc1cccc[n+]1[O-])c1cc2ccccc2o1
EC50 [1]: 11.3 µM (active)
EC50 [2]: > 60 µM (not active)

O=C(NC(=S)Nc1ccc(N2CCOCC2)c(Cl)c1)c1cccs1
EC50 [3]: 11 µM (active)
EC50 (Streptokinase A): > 150 µM (not active)
EC50 (Streptococcus): 15.8 µM (active)

OC(COCCC12CC3CC(CC(C3)C1)C2)CN1CCCCC1 (stereo not given)
EC50 [1]: 0.228 µM (active)
EC50 [2]: > 60 µM (not active)

CCCCN1C(=O)NC(=O)/C(=C(\C)Nc2ccc(OCC)cc2)C1=O
EC50 [3]: 8.66 µM (active)
EC50 (Streptokinase A): > 150 µM (not active)
EC50 (Streptococcus): 21.5 µM (active)

CN(Cc1ccccc1)C(=O)C1CCCN(Cc2cccc(Cl)c2)C1 (stereo not given)
EC50 [1]: 0.11 µM (active)
EC50 [2]: > 60 µM (not active)

CCC(C)C(=O)N1CCCC(c2nc(-c3cccs3)no2)C1 (stereo not given)
EC50 [4]: > 120 µM (not active)
EC50 (H4): 71.6 µM (active)

COCCNc1nc(-c2c(C)noc2C)nc2ccccc12
AC50 (Cytochrome P450 3A4): 15.8 µM (inconclusive)

CCOC(=O)c1c2c(n3ccccc13)C(=O)c1ccccc1C2=O
AC50 (Cytochrome P450 3A4): 3.16 µM (inconclusive)

CNc1ncnc2ccc(-c3ccccc3CN(C)C)cc12
AC50 (Cytochrome P450 2C19; read-out: AC50): 20 µM (inconclusive)

COc1ccc(-n2c(=O)c(C)nc3cnc(N(C)C)nc32)cc1
AC50 (Cytochrome P450 3A4): 20 µM (inconclusive)

CN(C)/C=N/c1cnc(C(=O)c2ccc(Cl)cc2)n1C
EC50 (H4): 0.52 µM (active)

CNC(=O)c1sc(SC)cc1-c1ccc(Cl)cc1
AC50 (Cytochrome P450 2D6): 25.1 µM (inconclusive)

O=[N+]([O-])c1cccc(-c2nc(-c3ccccc3)c(-c3cccs3)[nH]2)c1
AC50 (Cytochrome P450 2D6): 4.47 µM (inconclusive)

CC(=O)Nc1ccc(S(=O)(=O)N2CCC(N(C)CCC(C)C)CC2)cc1
AC50 (Cytochrome P450 2C19; read-out: AC50): 25.1 µM (inconclusive)

CCc1ccc(Oc2nc([N+](=O)[O-])nn2C)cc1
EC50 [1]: 0.438 µM (active)
EC50 [2]: > 30 µM (not active)

c1ccc(COc2ccccc2CNCc2cccnc2)cc1
EC50 [1]: 8.11 µM (active)
EC50 [2]: > 60 µM (not active)

C=C(C)CNC(=S)NNC(=O)CCn1c2ccc(Cl)cc2c2cc(Cl)ccc21
EC50 (Streptokinase A): > 150 µM (not active)

COC(=O)C1CCN(CC(=O)Nc2cc(Cl)ccc2OC)CC1
EC50 [1]: 4.18 µM (active)
EC50 [2]: > 30 µM (not active)

COc1ccc(CN(C)S(=O)(=O)c2ccc3c(c2)OCCO3)cc1
EC50 [3]: > 150 µM (not active)
EC50 (Streptokinase A): > 150 µM (not active)
EC50 (Streptococcus): > 150 µM (not active)

Cc1sc2c(c1C)c(=O)n(-c1ccccc1)c1nnc(C)n21
AC50 (Cytochrome P450 2C19; read-out: AC50): 8.91 µM (inconclusive)

CCSC(=N)Nc1ccc(C(F)(F)F)cc1
AC50 (Cytochrome P450 2C19; read-out: AC50): 20 µM (inconclusive)
AC50 (Cytochrome P450 3A4): 39.8 µM (inconclusive)

O=c1c(-c2ccc(Cl)cc2)nc2cnc(N3CCNCC3)nc2n1Cc1cccs1
AC50 (Cytochrome P450 2C19; read-out: AC50): 25.1 µM (inconclusive)

CCOC(=O)CC(NC(=O)c1cccs1)c1ccc(OCC)cc1 (stereo not given)
AC50 (Cytochrome P450 2D6): 14.1 µM (inconclusive)

O=S(=O)(Cc1cc(Sc2ccc(Cl)cc2)nc(-c2ccccc2)n1)c1ccccc1
EC50 [1]: 2.93 µM (active)
EC50 [2]: > 60 µM (not active)

O=c1c(-c2ccc(F)cc2)nc2cnc(N3CCNCC3)nc2n1C1CC1
AC50 (Cytochrome P450 2C19; read-out: AC50): 39.8 µM (inconclusive)

COc1ccc(C(CNC(=O)c2cccc(S(=O)(=O)Nc3ccccc3Cl)c2)N2CCOCC2)cc1 (stereo not given)
EC50 (Streptokinase A): > 150 µM (not active)
EC50 (Streptococcus): 104 µM (active)

CCN1CCN(c2ccc(S(=O)(=O)N3CCOCC3)cc2NC(=O)c2ccc(Cl)s2)CC1
EC50 [1]: 0.588 µM (active)
EC50 [2]: > 30 µM (not active)

COc1ccc(/C=C2\Sc3ccc(C(=O)N4CCCC4)cc3N(C)C2=O)cc1OC
EC50 [3]: 0.555 µM (active)
EC50 (Streptokinase A): > 150 µM (not active)
EC50 (Streptococcus): 8.27 µM (active)

OC(COCC1COc2ccccc2O1)CN1CCc2ccccc2C1 (stereo not given)
AC50 (Cytochrome P450 3A4): 17.8 µM (inconclusive)

C[C@H]1CC[C@@]2(NC1)O[C@@H]1C[C@H]3[C@@H]4CC[C@@H]5C[C@@H](O)CC[C@@]5(C)[C@@H]4CC[C@]3(C)[C@@H]1[C@@H]2C
AC50 (Cytochrome P450 2C19): inconclusive

c1ccc(CN2CCN(c3nc4ccccc4c4ccccc34)CC2)cc1
EC50 [3]: 15.9 µM (active)
EC50 (Streptokinase A): 14.9 µM (active)
EC50 (Streptococcus): > 150 µM (not active)

Cc1ccc(CN(C)CCc2ccccn2)cc1
EC50 [1]: 0.309 µM (active)
EC50 [2]: > 60 µM (not active)

CC(C)C[C@@H](N)C(=O)Nc1ccc2ccccc2c1
AC50 (Cytochrome P450 2C19; read-out: AC50): 2.51 µM (inconclusive)
AC50 (Cytochrome P450 2D6): 3.16 µM (inconclusive)
AC50 (Cytochrome P450 3A4): 2.51 µM (inconclusive)

O=C(CCc1nnc(CCCCc2ccccc2)o1)NCCc1cccnc1
EC50 [1]: 2.27 µM (active)
EC50 [2]: > 60 µM (not active)

O=S(=O)(Nc1ccc(N=Nc2ccc(O)c3ccccc23)cc1)c1ccccc1
EC50 [3]: 7.71 µM (active)
EC50 (Streptokinase A): 18.7 µM (active)
EC50 (Streptococcus): 41.5 µM (active)

COCCn1c(=O)c(-c2cccs2)nc2cnc(Oc3ccc(OC)cc3)nc21
AC50 (Cytochrome P450 2C19; read-out: AC50): 15.8 µM (inconclusive)

COc1ccc(-c2ccc(C(=S)N3CCN(C(C)=O)CC3)o2)cc1
AC50 (Cytochrome P450 2D6): 28.2 µM (inconclusive)

c1ccc(COc2ccc(-c3csnn3)cc2)cc1
EC50 [4]: 0.11 µM (active)
EC50 (H4): 1.64 µM (active)

Cc1[nH]c2ccccc2c1C(=O)CSc1nc2ccccc2c(=O)n1CCCN1CCOCC1
EC50 [4]: > 120 µM (not active)
EC50 (H4): > 120 µM (not active)

Oc1ccc(Cc2cc(Cl)cc(Cl)c2O)cc1Cl
AC50 (Cytochrome P450 2D6): 7.94 µM (inconclusive)
AC50 (Cytochrome P450 3A4): 3.98 µM (inconclusive)
